One compound from paper PMC5384001 (Scientific Reports, 2017) can be followed below.

Assay [1] has as its target T1, GluD2-Lc(S544G)-(HS2)GluN1 (Rattus norvegicus, UniProt Q63226, A654T/A766F/D767R/N763E/R768S/S544G/T764L/V761T/V765F).
T1 construct: the function of full-length receptors as well, we introduced them into the GluD2 lurcher mutant (GluD2-Lc); expressed in transfected cells; host or cells: Xenopus laevis oocytes injected with cRNA
T1 sequence (Q63226 24-1007 S544G/A654T/V761T/N763E/T764L/V765F/A766F/D767R/R768S): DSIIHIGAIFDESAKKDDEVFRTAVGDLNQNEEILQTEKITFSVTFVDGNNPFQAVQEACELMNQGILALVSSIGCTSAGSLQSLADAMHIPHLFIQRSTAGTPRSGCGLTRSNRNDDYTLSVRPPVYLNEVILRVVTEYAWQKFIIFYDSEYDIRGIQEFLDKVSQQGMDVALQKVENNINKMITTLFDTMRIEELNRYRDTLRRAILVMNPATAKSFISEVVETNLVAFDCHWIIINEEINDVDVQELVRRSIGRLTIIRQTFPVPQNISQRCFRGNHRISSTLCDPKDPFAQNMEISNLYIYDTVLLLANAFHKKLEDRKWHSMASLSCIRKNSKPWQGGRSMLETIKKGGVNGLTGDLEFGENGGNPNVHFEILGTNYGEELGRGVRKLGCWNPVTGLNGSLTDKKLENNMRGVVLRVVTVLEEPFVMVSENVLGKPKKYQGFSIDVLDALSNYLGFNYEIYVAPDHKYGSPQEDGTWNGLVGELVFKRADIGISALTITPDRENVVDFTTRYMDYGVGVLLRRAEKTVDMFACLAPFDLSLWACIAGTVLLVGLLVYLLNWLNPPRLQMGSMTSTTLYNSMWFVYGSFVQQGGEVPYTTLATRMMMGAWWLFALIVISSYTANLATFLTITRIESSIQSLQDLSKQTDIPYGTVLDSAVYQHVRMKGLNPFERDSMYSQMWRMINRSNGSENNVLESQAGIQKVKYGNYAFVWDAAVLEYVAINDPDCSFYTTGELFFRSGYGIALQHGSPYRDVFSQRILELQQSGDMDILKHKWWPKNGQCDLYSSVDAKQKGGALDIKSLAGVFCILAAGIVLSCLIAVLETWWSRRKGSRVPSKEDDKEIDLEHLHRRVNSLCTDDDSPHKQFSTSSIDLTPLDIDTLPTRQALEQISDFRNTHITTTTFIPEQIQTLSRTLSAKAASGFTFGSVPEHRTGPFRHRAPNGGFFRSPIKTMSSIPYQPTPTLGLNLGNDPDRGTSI
Nature of the assay: Two-electrode voltage clamp in Xenopus oocytes, inhibition of spontaneous currents. The class given is cell-based. As to conditions: fraction of spontaneous current inhibited by saturating D-serine. In general terms: In two-electrode clamp one electrode senses voltage and the other passes current.

Assay [2] deals with T2, GluD2-Lc(Y543Q) (Rattus norvegicus, UniProt Q63226, A654T/Y543Q).
T2 construct: the function of full-length receptors as well, we introduced them into the GluD2 lurcher mutant (GluD2-Lc); expressed in transfected cells; host or cells: Xenopus laevis oocytes injected with cRNA
T2 sequence (Q63226 24-1007 Y543Q/A654T): T1 sequence (Q63226 24-1007 S544G/A654T/V761T/N763E/T764L/V765F/A766F/D767R/R768S) with Y520Q, G521S, T738V, E740N, L741T, F742V, F743A, R744D, S745R
The assay is described as above. The settings on record: fraction of spontaneous current inhibited by saturating D-serine. Format: cell-based.

The structures appear in SMILES notation. Substitutions are numbered along the chain they refer to. Where “and” joins values, the source holds several entries; their conditions need not be identical. Equal values may be shown once.

`N[C@H](CO)C(=O)O` [D-serine]: the “D-serine efficacy Mean ± SEM” value is 40.6 ± 0.5% in assay [1]; 36% and 36.2 ± 0.6% in assay [2].
